Key:
S. aureus 1241 [1] = assay: MIC for further growth of biofilm cells, preformed biofilm (A625nm); format: cell-based, Staphylococcus aureus; settings: ≥80% inhibition, 18 h preformed biofilm, 20 h with substance
Protocol: Ten concentrations of NAC, RLs, and UA were tested to determine the minimum inhibitory concentration for planktonic growth, and subsequently, the six highest concentrations were applied on preformed biofilms to evaluate the biofilm eradication ability of the compounds. MIC was defined as the lowest substance concentration able to inhibit at least 80% of microbial growth (MICPC80 for planktonic cells, MICBC80 for further growth of biofilm cells), inhibit 80% of metabolic activity (MICBM80 for biofilm metabolic activity, MICMPB80 for metabolic activity of preformed biofilm), prevent biofilm formation by at least 80% (MICBF80 for biofilm formation), or reduce a preformed biofilm by at least 80% (MICBR80 for biofilm reduction). The results of MICs are summarized in Table 1 (planktonic cells) and Table 2 (biofilm-associated cells).
The determination of MICs was performed according to Chlumsky et al.. […] To evaluate planktonic cells growth (MICPC80) and further growth of biofilm cells (MICBC80), the optical density of the content of the microtiter plates was measured spectrophotometrically at 625 nm before and after 24 h (for biofilm formation) of cultivation or before and after additional 20 h incubation with the tested compound (for preformed biofilm). […] To evaluate the inhibition of biofilm formation (MICBF80) and reduction in preformed biofilms (MICBR80), biomass was quantified using crystal violet staining, and its metabolic activity (MICBM80 and MICMPB80) was estimated by using the MTT (thiazyl tetrazolium bromide, Sigma-Aldrich, USA) reduction assay, both measured spectrophotometrically at 595 nm.
All inhibitions were calculated using the formula of Chlumsky et al. below (Equation (1)):(1) A625(595)nm inhibition (%)=A625(595)nm (control) – A625(595)nm(natural substance)/A625(595)nm (control)× 100 where A625(595)nm (control) is the absorbance of bacterial suspension/biofilm itself, and A625(595)nm(natural substance) is the absorbance of the bacterial suspension/biofilm with the added natural substance (NAC, RLs, and UA). […]

L. monocytogenes 149 = assay: CLSM analysis, biofilm prevention; format: cell-based, Listeria monocytogenes; settings: for proportion of membrane-compromised cells: 24 h; for Thickness (µm) MICBM80 / Thickness (µm) subCBM80: 24 h exposure; for Thickness (µm) MICBM80: substance at its MICBM80, mean ± SD; for Thickness (µm) subCBM80: substance at subinhibitory concentration, mean ± SD
Protocol: (§1) Biofilm prevention and removal analyses were performed using previously determined minimum inhibitory and subinhibitory concentrations for metabolic activity (MICBM80, subCBM80; MICMPB80, subCMPB80) of NAC, RLs, and UA specific for each tested strain. Selected concentrations were used to evaluate the inhibition of biofilm formation (biofilm prevention) and the reduction in previously formed biofilms (biofilm removal) for the same set of microorganisms, with the exception of S. Infantis, which was excluded from the analysis due to its inability to form biofilm in the selected microtiter plate. Biofilm prevention and removal were observed using CLSM with specific staining to distinguish between live and membrane-compromised cells. Images were analyzed to evaluate (i). the total volume of the biomass, (ii). ratios of live and membrane-compromised cells, and (iii). to calculate biofilm volume reduction for individual organisms after the respective treatment types. The total biofilm volume was normalized by the area of the well and expressed as an average biofilm thickness. Complete data are provided in Supplementary Materials (Tables S1–S8).
(§2) For both inhibition and reduction of biofilms, overnight cultures from BHI were diluted in TSB + 1% Glc to reach an absorbance of 0.08 to 0.1 at 625 nm. The inoculum (150 µL) was transferred into wells of the 96-well flat-bottomed Ibidiμ-Plate (Ibidi, Gräfelfing, Germany) and mixed with 150 µL of each of the three tested substances in technical quadruplicates, followed by incubation at 37 °C for 24 h. Simultaneously, the prepared bacterial suspensions were inoculated to an additional microtiter plate (200 µL) and allowed to form biofilm overnight (18 h at 37 °C). After the incubation, the content of the well was drained off, and 200 µL of each of the three tested substances was added to the plate, which was then incubated for an additional 20 h. The used concentrations of the substances represented the subinhibitory and minimum inhibitory concentrations for metabolic activity (subCBM80, MICBM80; subCMPB80, MICMPB80). Both setups contained a positive control of the bacterial growth (inoculum mixed with sterile TSB + 1% Glc medium) and a control monitoring microbial contamination (sterile medium). Non-treated wells were used as a positive control for comparison between non-treated and treated biofilm mass.
(§3) Prior to the imaging, the wells were stained with the LIVE/DEAD® BacLight™ Bacterial Viability Kit (Thermo Fisher Scientific, MA, USA) following the manufacturer’s guidelines and Drago et al.. Briefly, equal volumes of SYTO® 9 and propidium iodide were combined with the sterile distilled water to reach a final concentration of […]. The biofilm mass was stained using 300 µL of the staining solution per well followed by incubation at 37 °C in the dark for 15 min. Stained wells were washed once with sterile distilled water, which was then added to each well (300 µL). Images were acquired with an inverted Leica SP5 CLSM using a 1.25× dry objective (WD 3.7 mm, Z-resolution 27 µm, up to 24 Z-stacks per well) to visualize an entire well. Samples were kept at the cultivation conditions (37 °C, 5% CO2, 90% humidity) with an OkoLabs stage top environmental chamber (Oko Labs, PA, USA). Fluorophore excitation lasers and emission bandwidths were as follows: SYTO® 9 (ex/em 485/498 nm) 488 nm excitation, 495 to 550 nm emission collection; propidium iodide (ex/em 535/617 nm) 561 nm excitation, 595 to 650 nm emission collection. The laser beam scanned the visual field at a frequency of 600 Hz. The wells were captured in snapshots of 1024 × 1024 pixels representing the area of 153.76 mm^2.
(§4) All collected images were statistically evaluated to quantify biovolume utilizing the surface estimation procedure described in Parker et al.. […]

L. monocytogenes 164 = assay: CLSM analysis, biofilm prevention; format: cell-based, Listeria monocytogenes; settings: for Thickness (µm) MICBM80 / Thickness (µm) subCBM80: 24 h exposure; for Thickness (µm) MICBM80: substance at its MICBM80, mean ± SD; for Thickness (µm) subCBM80: substance at subinhibitory concentration, mean ± SD
Protocol: as §1, §2, §3, §4

S. aureus 1241 [2] = assay: CLSM analysis, biofilm prevention; format: cell-based, Staphylococcus aureus; settings: for Thickness (µm) MICBM80 / Thickness (µm) subCBM80: 24 h exposure; for Thickness (µm) MICBM80: substance at its MICBM80, mean ± SD; for Thickness (µm) subCBM80: substance at subinhibitory concentration, mean ± SD
Protocol: as §1, §2, §3, §4

S. aureus 816 = assay: CLSM analysis, biofilm prevention; format: cell-based, Staphylococcus aureus; settings: for Thickness (µm) MICBM80 / Thickness (µm) subCBM80: 24 h exposure; for Thickness (µm) MICBM80: substance at its MICBM80, mean ± SD; for Thickness (µm) subCBM80: substance at subinhibitory concentration, mean ± SD
Protocol: as §1, §2, §3, §4

[3] = 24 h, MIC and subinhibitory concentration

SMILES | MICBC80 (S. aureus 1241 [1]) | proportion of membrane-compromised cells (L. monocytogenes 149; MIC) | Thickness (µm) MICBM80 (L. monocytogenes 149) | Thickness (µm) subCBM80 (L. monocytogenes 149) | Thickness (µm) MICBM80 (L. monocytogenes 164) | Thickness (µm) subCBM80 (L. monocytogenes 164) | Thickness (µm) MICBM80 (S. aureus 1241 [2]) | Thickness (µm) subCBM80 (S. aureus 1241 [2]) | proportion of membrane-compromised cells (S. aureus 816; [3]) | Thickness (µm) MICBM80 (S. aureus 816) | Thickness (µm) subCBM80 (S. aureus 816) | proportion of membrane-compromised cells (L. monocytogenes 149; MIC and subinhibitory concentration) | proportion of membrane-compromised cells, increase (L. monocytogenes 164; 24 h, MIC) | proportion of membrane-compromised cells (S. aureus 1241 [2]; [3])
CC(=O)c1c(O)c(C)c(O)c2c1OC1=CC(=O)C(C(C)=O)C(=O)C12C (single isomer, unassigned; (+)) [UA, (+)-usnic acid] | 3.91 µg/mL | up to 15% | 175 ± 79.4 µm | 268 ± 68.9 µm | 325 ± 70.5 µm | 417 ± 40.4 µm | 367 ± 40.5 µm | 392 ± 21.7 µm | up to 15% | 237 ± 41.9 µm | 270 ± 21 µm | – | – | –
CC(=O)N[C@@H](CS)C(=O)O [NAC, N-Acetyl-L-cysteine] | 6250 µg/mL | – | 86.5 ± 2.6 µm | 238 ± 32 µm | 158 ± 93.2 µm | 288 ± 40.6 µm | 236 ± 50.5 µm | 212 ± 16.1 µm | – | 104 ± 67.8 µm | 181 ± 57.7 µm | up to 25% | about 45% | up to 25%
